Drawing on patent publication US12492188B2, “1H-benzo[D]imidazole derivatives as TLR9 inhibitors for the treatment of fibrosis” (BRISTOL-MYERS SQUIBB COMPANY, priority 2020, dated 2025), this text covers IC50 for ten compounds.

Where two headings read alike, the source gives them in different places.

What all share (type): cell-based
In one assay the target is T1, human TLR9 (Homo sapiens, UniProt Q9NR96).
T1 construct: host or cells: HEK-Blue cells (HEK293-derived reporter line)
T1 sequence (Q9NR96 26-1032): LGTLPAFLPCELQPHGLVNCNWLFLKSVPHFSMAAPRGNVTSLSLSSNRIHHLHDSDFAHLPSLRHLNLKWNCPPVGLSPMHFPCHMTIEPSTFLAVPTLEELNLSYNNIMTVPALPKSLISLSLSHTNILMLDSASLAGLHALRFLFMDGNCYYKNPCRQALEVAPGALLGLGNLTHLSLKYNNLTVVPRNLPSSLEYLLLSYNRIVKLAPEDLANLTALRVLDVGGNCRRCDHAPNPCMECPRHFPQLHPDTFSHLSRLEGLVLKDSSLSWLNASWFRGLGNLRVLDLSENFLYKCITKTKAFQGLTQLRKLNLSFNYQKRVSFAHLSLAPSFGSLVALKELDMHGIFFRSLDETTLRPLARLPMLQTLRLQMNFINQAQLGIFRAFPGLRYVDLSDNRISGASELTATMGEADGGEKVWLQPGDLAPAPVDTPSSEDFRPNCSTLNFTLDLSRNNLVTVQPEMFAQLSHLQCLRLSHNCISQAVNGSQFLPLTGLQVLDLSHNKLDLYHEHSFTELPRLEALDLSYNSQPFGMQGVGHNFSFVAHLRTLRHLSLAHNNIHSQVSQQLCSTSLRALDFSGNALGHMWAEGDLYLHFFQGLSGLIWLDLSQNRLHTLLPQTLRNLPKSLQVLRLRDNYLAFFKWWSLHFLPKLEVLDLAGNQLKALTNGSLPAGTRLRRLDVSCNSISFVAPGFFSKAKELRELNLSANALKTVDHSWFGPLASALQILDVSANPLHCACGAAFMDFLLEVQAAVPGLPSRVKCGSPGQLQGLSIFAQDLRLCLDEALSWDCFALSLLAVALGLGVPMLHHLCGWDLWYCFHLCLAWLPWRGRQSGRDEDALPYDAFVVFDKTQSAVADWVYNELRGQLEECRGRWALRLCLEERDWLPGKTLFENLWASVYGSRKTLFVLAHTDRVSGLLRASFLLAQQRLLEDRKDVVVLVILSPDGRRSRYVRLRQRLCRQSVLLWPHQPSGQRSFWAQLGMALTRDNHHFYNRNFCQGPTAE
Briefly: TLR9 inhibition reporter assay (HEK-Blue cells, secreted embryonic alkaline phosphatase reporter). The gist of the method:
(§1)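 HEK-Blue cells expressing human TLR7, TLR8 or TLR9 with an NF-κB/AP-1-driven SEAP reporter were pretreated with compound (0.05 nM–50 μM final) for 30 min at room temperature. Agonists were gardiquimod 7.5 μM for TLR7, R848 15.9 μM for TLR8 and ODN2006 5 nM for TLR9. SEAP was read after 22 h at 37 °C, and inhibition was calculated relative to agonist-plus-DMSO and known-inhibitor controls.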
On the technique in general: A reporter such as luciferase makes a cellular process visible.

Another assay has as its target T2, human TLR7 (Homo sapiens, UniProt Q9NYK1).
T2 construct: host or cells: HEK-Blue cells (HEK293-derived reporter line)
T2 sequence (Q9NYK1 27-1049): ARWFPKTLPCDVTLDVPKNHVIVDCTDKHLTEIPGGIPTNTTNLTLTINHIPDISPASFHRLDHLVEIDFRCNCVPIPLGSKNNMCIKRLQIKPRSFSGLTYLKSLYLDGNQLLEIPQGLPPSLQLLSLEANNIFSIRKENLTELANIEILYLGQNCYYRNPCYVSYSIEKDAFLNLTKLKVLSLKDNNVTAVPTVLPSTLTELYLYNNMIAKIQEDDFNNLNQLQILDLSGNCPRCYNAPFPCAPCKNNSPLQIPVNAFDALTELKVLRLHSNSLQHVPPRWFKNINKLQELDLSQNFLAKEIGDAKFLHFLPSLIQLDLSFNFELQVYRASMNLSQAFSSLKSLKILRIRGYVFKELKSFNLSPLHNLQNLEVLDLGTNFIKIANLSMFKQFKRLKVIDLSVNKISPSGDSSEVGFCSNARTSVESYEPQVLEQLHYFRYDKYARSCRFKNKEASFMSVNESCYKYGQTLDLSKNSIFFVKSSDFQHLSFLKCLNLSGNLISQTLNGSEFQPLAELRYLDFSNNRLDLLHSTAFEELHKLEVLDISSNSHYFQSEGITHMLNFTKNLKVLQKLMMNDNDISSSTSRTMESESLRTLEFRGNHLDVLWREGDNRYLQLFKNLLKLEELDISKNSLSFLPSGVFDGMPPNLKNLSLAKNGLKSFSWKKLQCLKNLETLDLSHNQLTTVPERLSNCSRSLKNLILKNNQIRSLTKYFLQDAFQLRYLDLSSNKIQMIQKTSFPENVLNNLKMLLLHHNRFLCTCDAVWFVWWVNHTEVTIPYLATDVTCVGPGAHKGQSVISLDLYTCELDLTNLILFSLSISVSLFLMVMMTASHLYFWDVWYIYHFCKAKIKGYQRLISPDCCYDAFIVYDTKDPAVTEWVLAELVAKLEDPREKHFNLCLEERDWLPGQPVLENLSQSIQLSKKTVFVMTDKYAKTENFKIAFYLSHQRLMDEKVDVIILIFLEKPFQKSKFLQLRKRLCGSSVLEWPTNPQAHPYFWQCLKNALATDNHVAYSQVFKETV
Briefly: TLR7 inhibition reporter assay (HEK-Blue cells, secreted embryonic alkaline phosphatase reporter). The note with it: HEK-Blue cells overexpressing human TLR7, stimulated with gardiquimod 7.5 μM; read-out: TLR 7 IC50. The procedure, abridged:
as §1

Another assay deals with T3, human TLR8 (Homo sapiens, UniProt Q9NR97).
T3 construct: host or cells: HEK-Blue cells (HEK293-derived reporter line)
T3 sequence (Q9NR97 27-1041): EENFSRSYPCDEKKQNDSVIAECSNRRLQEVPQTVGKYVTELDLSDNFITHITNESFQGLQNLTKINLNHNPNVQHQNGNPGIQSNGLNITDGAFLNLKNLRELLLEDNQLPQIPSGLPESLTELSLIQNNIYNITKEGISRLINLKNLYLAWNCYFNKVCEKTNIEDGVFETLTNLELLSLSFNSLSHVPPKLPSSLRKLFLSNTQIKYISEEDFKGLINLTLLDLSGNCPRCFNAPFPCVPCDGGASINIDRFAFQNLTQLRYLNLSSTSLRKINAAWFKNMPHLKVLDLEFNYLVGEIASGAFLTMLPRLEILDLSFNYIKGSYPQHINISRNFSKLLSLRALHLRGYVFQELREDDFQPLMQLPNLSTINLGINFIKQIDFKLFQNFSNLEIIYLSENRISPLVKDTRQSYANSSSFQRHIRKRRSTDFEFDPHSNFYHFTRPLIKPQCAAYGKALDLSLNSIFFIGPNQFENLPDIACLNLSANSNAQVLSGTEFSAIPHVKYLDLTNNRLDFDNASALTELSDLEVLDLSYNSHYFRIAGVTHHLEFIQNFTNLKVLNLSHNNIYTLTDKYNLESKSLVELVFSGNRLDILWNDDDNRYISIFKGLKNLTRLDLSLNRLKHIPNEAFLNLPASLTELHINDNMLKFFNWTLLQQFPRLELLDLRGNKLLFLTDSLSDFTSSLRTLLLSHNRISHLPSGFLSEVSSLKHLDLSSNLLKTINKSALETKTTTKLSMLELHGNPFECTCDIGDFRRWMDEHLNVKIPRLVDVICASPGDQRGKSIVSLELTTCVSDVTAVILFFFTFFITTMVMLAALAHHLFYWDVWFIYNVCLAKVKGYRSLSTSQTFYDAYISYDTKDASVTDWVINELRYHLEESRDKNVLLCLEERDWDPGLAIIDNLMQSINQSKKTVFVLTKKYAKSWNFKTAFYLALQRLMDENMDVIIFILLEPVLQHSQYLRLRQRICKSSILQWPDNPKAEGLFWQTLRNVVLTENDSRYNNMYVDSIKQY
Briefly: TLR8 inhibition reporter assay (HEK-Blue cells, secreted embryonic alkaline phosphatase reporter). The note with it: HEK-Blue cells overexpressing human TLR8, stimulated with R848 15.9 μM; read-out: TLR 8 IC50. The procedure, abridged:
as §1

Where [1] appears, read: HEK-Blue cells overexpressing human TLR9, stimulated with ODN2006 5 nM, 22 hour incubation, reporter readout.
Where [2] appears, read: HEK-Blue cells overexpressing human TLR9, stimulated with ODN2006 5 nM, read-out: TLR 9 IC50.

In the case of `CC(C)N1C2CCC1CC(N1CCC(c3cc4c(cc3F)nc(-c3ccc(S(C)(=O)=O)cc3)n4C)CC1)C2` (single isomer, unassigned) [Example 98, 5-fluoro-6-(1-(8-isopropyl-8-azabicyclo[3.2.1]octan-3-yl)piperidin-4-yl)-1-methyl-2-(4-(methylsulfonyl)phenyl)-1H-benzo[d]imidazole], the IC50 against human TLR9 (setting [1]) was 10 nM; at human TLR7 it was 23800 nM; at human TLR8, more than 50000 nM.

`COc1ccc(-c2nc3cc(C4CCN(C5CCN(C6CC6)CC5)CC4)ccc3n2C(C)C)cc1OC` [Example 37, 5-(1′-cyclopropyl-[1,4′-bipiperidin]-4-yl)-2-(3,4-dimethoxyphenyl)-1-isopropyl-1H-benzo[d]imidazole]: the IC50 on human TLR9 (setting [1]) was 390 nM; at human TLR9 (setting [2]), 388 nM; at human TLR7, 7500 nM; on human TLR8, more than 50000 nM.

For the compound `Cn1c(-c2ccc(S(C)(=O)=O)cc2)nc2ccc(C3CCN(C4CCN(CC5CC5)CC4)CC3)c(F)c21` [Example 261, 6-(1′-(cyclopropylmethyl)-[1,4′-bipiperidin]-4-yl)-7-fluoro-1-methyl-2-(4-(methylsulfonyl)phenyl)-1H-benzo[d]imidazole], the IC50 is 150 nM against human TLR9, 154 nM on human TLR9 (setting [2]), 7900 nM on human TLR7 and more than 50000 nM on human TLR8.

On to `Cn1c(-c2ccc(S(C)(=O)=O)cc2)nc2cc(C3CCN(C4CC5CCC(C4)N5C4CCC4)CC3)cc(F)c21` (single isomer, unassigned) [Example 215, 5-(1-(8-cyclobutyl-8-azabicyclo[3.2.1]octan-3-yl)piperidin-4-yl)-7-fluoro-1-methyl-2-(4-(methylsulfonyl)phenyl)-1H-benzo[d]imidazole], for which the IC50 is 70 nM against human TLR9, 70 nM at human TLR9 (setting [2]), 17000 nM on human TLR7 and more than 50000 nM on human TLR8.

Turning to `COc1ccc(-c2nc3c(C)cc(C4CCN(C5CC6CCC(C5)N6CC(C)C)CC4)cc3[nH]2)cc1OC` (single isomer, unassigned) [Example 19, 2-(3,4-dimethoxyphenyl)-6-(1-(8-isobutyl-8-azabicyclo[3.2.1]octan-3-yl)piperidin-4-yl)-4-methyl-1H-benzo[d]imidazole], the IC50 is 28 nM on human TLR9 (setting [1]), 2500 nM at human TLR7 and more than 50000 nM at human TLR8.

In the case of `COCCN1C2CCC1CC(N1CCC(c3cc4nc(-c5ccc(S(C)(=O)=O)cc5)n(C)c4cc3F)CC1)C2` (stereo not drawn) [Example 257, 6-fluoro-5-(1-(8-(2-methoxyethyl)-8-azabicyclo[3.2.1]octan-3-yl)piperidin-4-yl)-1-methyl-2-(4-(methylsulfonyl)phenyl)-1H-benzo[d]imidazole], the IC50 against human TLR9 is 49 nM; at human TLR9 (setting [2]), 49 nM; on human TLR7, 30700 nM; on human TLR8, more than 50000 nM.

Take `Cn1c(-c2ccc(S(C)(=O)=O)cc2)nc2cc(C3CCN(C4CCN(C5COC5)CC4)CC3)cc(F)c21` [Example 206, 7-fluoro-1-methyl-2-(4-(methylsulfonyl)phenyl)-5-(1′-(oxetan-3-yl)-[1,4′-bipiperidin]-4-yl)-1H-benzo[d]imidazole]: the IC50 is 840 nM against human TLR9, 840 nM at human TLR9 (setting [2]), more than 50000 nM on human TLR7 and more than 50000 nM at human TLR8.

Consider `CN(C)C1CCN(Cc2ccc(-c3ccc4nc(-c5cccc(F)c5)n(C)c4c3)cc2)CC1` [Example 377, 1-(4-(2-(3-fluorophenyl)-1-methyl-1H-benzo[d]imidazol-6-yl)benzyl)-N,N-dimethylpiperidin-4-amine], for which the IC50 on human TLR9 (setting [1]) is 350 nM; on human TLR9 (setting [2]) it was 346 nM; at human TLR7 it was 1300 nM; at human TLR8, 19600 nM.

For the compound `CC(C)CN1C2CCC1CC(N1CCC(c3cc(F)c4c(c3)nc(-c3ccc(S(C)(=O)=O)cc3)n4C)CC1)C2` (stereo not drawn) [Example 210, 7-fluoro-5-(1-(8-isobutyl-8-azabicyclo[3.2.1]octan-3-yl)piperidin-4-yl)-1-methyl-2-(4-(methylsulfonyl)phenyl)-1H-benzo[d]imidazole], the IC50 against human TLR9 is 120 nM; at human TLR7 it was more than 50000 nM; at human TLR8, more than 50000 nM.

Take `Cc1cc(C2CCN(C3CC4CCC(C3)N4C(C)C)CC2)cc2c1nc(-c1ccc(S(C)(=O)=O)cc1)n2C` (single isomer, unassigned) [Example 84, 6-(1-(8-isopropyl-8-azabicyclo[3.2.1]octan-3-yl)piperidin-4-yl)-1,4-dimethyl-2-(4-(methylsulfonyl)phenyl)-1H-benzo[d]imidazole]: the IC50 against human TLR9 (setting [1]) is 72 nM; at human TLR7, 18600 nM; on human TLR8 it was more than 25000 nM.

What is called IC50 is the concentration at which inhibition is half-maximal.
